Experimental data as given in patent publication US20170223995A1, “Sweetener Blend Compositions” (The Coca-Cola Company, priority 2011, published 2017).

Experiment: Multi-sip and swallow taste test by a trained taste tester
Assay type: in vivo
Description: Multi-Sip and Swallow Test Method
A sip (approximately 2.0-5.0 mL) of a sample was swallowed by a trained taste tester. After allowing a 15-25 second interval to pass, a second sip of the sample is tasted and swallowed. This process is repeated as needed to determine the taste properties. The taste properties are then recorded by the trained taste tester. Preferably no more than ten samples are tested per day to avoid taste fatigue. Each sample was taken at least 1.5 hours following eating or drinking.

[1] = 500 ppm in carbon-treated water
[2] = as restated in the Discussion, out of highest five
[3] = 100,000 ppm in carbon-treated water

Molecule	bitterness intensity [1]	sugar-like tasting quality [1]	sweetness intensity [1]	sweetness linger [1]	sweetness linger [2]	sweetness onset [1]	sweetness (in words, compared with rebaudioside A) (Discussion)	sugar-like tasting quality (in words, comparison) (text remarks, comparison with rebaudioside A)	bitterness intensity [3]	sugar-like tasting quality [3]	sweetness intensity [3]	sweetness linger [3]
C=C1C[C@@]23CC[C@H]4[C@@](C)(CCC[C@@]4(C)C(=O)O[C@@H]4O[C@H](CO)[C@@H](O)[C@H](O)[C@H]4O)[C@@H]2CC[C@]1(O[C@@H]1O[C@H](CO)[C@@H](O)[C@H](O[C@@H]2O[C@H](CO)[C@@H](O)[C@H](O)[C@H]2O)[C@H]1O[C@@H]1O[C@H](CO)[C@@H](O)[C@H](O)[C@H]1O)C3 [rebaudioside A]	4 out of 5	0 out of 5	5 out of 10	5 out of 5	5							
C=C1C[C@@]23CC[C@H]4[C@@](C)(CCC[C@@]4(C)C(=O)O)[C@@H]2CC[C@]1(O[C@@H]1O[C@H](CO)[C@@H](O)[C@H](O)[C@H]1O[C@@H]1O[C@H](CO)[C@@H](O)[C@H](O)[C@H]1O)C3 [steviolbioside]	no bitterness	2 out of 5	5 out of 10	3 out of 5		slow sweetness onset						
C=C1C[C@@]23CC[C@H]4[C@@](C)(CCC[C@@]4(C)C(=O)O[C@@H]4O[C@H](CO)[C@@H](O)[C@H](O)[C@H]4O[C@@H]4O[C@H](CO)[C@@H](O)[C@H](O)[C@H]4O)[C@@H]2CC[C@]1(O[C@@H]1O[C@H](CO)[C@@H](O)[C@H](O[C@@H]2O[C@H](CO)[C@@H](O)[C@H](O)[C@H]2O)[C@H]1O[C@@H]1O[C@H](CO)[C@@H](O)[C@H](O)[C@H]1O)C3 [rebaudioside D]					5		less sweetness	slightly more sugar-like taste quality				
OC[C@H]1O[C@@](CO)(O[C@H]2O[C@H](CO)[C@@H](O)[C@H](O)[C@H]2O)[C@@H](O)[C@@H]1O [sugar]									0	5	10	0
C=C1C[C@@]23CC[C@H]4[C@@](C)(CCC[C@@]4(C)C(=O)O[C@@H]4O[C@H](CO)[C@@H](O)[C@H](O)[C@H]4O)[C@@H]2CC[C@]1(O[C@@H]1O[C@H](CO)[C@@H](O)[C@H](O)[C@H]1O[C@@H]1O[C@H](CO)[C@@H](O)[C@H](O)[C@H]1O)C3 [stevioside]	5 out of 5	0 out of 5	5 out of 10	5 out of 5								
rebaudioside B	0 out of 5	3 out of 5	2 out of 10	3 out of 5	3							
